Consider three compounds from publication PMC10935965, “An odorant receptor mediates the avoidance of Plutella xylostella against parasitoid” (BMC Biology, 2024).

The target in test [1] is T1, PxylOR16/PxylOrco (Plutella xylostella, UniProt V9SFT8).
T1 construct: no tag stated; with Odorant receptor coreceptor
T1 sequence (V9SFT8 1-405): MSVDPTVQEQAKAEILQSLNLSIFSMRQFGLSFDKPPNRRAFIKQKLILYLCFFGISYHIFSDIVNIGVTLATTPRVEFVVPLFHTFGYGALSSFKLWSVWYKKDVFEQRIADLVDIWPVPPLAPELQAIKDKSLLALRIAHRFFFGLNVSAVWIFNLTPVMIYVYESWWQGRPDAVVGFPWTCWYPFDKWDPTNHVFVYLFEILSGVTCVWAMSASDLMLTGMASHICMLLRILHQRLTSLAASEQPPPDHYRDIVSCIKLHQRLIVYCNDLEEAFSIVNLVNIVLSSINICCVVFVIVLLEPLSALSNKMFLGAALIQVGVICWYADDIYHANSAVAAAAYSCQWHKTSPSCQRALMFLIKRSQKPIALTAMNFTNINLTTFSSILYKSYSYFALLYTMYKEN
T1 sequence (D0EZE1 1-471 partner): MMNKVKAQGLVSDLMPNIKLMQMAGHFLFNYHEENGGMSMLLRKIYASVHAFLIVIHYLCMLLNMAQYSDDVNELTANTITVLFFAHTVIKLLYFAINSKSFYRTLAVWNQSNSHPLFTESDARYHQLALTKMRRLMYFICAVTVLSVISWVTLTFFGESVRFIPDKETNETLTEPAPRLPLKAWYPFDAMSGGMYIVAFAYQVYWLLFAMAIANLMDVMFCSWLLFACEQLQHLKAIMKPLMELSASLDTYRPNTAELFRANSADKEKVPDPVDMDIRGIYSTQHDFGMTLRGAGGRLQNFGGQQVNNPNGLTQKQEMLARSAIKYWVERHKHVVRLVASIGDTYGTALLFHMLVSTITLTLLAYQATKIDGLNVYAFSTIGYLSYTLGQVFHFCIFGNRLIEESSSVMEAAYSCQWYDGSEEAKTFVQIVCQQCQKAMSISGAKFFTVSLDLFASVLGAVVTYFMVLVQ
The experiment in a line: two-electrode voltage clamp, Xenopus oocytes. In kind it is cell-based. As to conditions: agonist, co-expressed with PxylOrco, holding potential -80 mV, Ringer's buffer. In general terms: Two-electrode voltage clamp holds a large cell at a set potential and records current.

In test [2] the target is T1, PxylOR16/PxylOrco. The experiment in a line: two-electrode voltage clamp, Xenopus oocytes. In kind it is cell-based.

Take `CCCCCCCO` [1-heptanol]: the “inward current response at 10^-4 M” value in test [1] is “they also responded weakly to two other volatiles (octyl acetate and 1-heptanol)”.
As usually defined, the EC50 is the midpoint of the concentration-response curve. Higher therefore signals lower potency in that assay. As for `CCCCCCC=O` [heptanal], the 50% effective concentration (EC50) in test [2] stood at 17.6 µM.
As to `CCCCCCCCOC(C)=O` [octyl acetate], the “inward current response at 10^-4 M” value in test [1] (weak agonist, 10^-4 M) is “they also responded weakly to two other volatiles (octyl acetate and 1-heptanol)”.
